Reference: ChEMBL document CHEMBL1201862, “PubChem BioAssay data set” (2004)
Activity calls are given as the source filed them.

Assays:
Beta-galactosidase = Beta-galactosidase (Escherichia coli, UniProt Q8VNN2); experiment: detection-enzyme interference by beta-gal modulators – biochemical, E. coli enzyme, set 3, artefact control for CCR6 antagonist project, dose response (AID 504712); type: functional
[1] = target: T1, Short transient receptor potential channel 4 (Mus musculus, UniProt Q9QUQ5); experiment: calcium entry via TRPC4 opening agents – cell-based, HEK293 TRPC4/mu-opioid, Fluo-4 calcium, dose response (AID 434937); type: functional
T1 sequence (Q9QUQ5 whole entry): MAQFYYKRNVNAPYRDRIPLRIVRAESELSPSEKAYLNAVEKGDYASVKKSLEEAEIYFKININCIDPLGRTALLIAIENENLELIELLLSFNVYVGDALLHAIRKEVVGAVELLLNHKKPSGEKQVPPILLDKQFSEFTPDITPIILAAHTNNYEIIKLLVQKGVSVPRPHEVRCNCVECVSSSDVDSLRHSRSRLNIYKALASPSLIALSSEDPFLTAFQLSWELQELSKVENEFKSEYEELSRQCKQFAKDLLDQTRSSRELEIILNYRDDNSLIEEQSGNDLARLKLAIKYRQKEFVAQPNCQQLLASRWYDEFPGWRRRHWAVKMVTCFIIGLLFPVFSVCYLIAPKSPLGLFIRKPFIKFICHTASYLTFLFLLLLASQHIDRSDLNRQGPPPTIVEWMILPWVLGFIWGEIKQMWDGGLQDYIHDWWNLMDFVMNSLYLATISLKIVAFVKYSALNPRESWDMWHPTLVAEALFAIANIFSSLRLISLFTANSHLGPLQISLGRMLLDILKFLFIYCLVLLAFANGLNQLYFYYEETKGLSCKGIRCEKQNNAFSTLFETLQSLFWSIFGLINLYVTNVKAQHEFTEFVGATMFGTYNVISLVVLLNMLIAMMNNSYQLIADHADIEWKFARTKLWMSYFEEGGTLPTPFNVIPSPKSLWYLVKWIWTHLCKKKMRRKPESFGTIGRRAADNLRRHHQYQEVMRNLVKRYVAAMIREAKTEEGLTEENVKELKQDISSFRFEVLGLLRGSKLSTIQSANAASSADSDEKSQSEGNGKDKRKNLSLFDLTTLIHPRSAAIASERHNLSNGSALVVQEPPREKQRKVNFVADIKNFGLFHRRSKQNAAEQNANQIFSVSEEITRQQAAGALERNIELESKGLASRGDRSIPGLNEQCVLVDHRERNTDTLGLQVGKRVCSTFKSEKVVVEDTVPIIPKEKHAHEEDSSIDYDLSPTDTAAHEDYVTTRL

[2] = target: T2, Ubiquitin-conjugating enzyme E2 N (Homo sapiens, UniProt P61088); type: functional;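 note: Dose-response confirmation in a TR-FRET assay detecting UBC13-driven polyubiquitin chain formation, inhibition measured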
T2 sequence (P61088 whole entry): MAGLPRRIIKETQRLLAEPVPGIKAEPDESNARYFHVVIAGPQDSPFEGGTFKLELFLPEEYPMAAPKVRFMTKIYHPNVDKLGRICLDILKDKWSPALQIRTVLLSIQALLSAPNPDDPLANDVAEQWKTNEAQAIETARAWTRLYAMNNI

[3] = target: T3, Zinc finger protein mex-5 (Caenorhabditis elegans, UniProt Q9XUB2); experiment: potency of MEX-5 RNA-binding blockers – biochemical, C. elegans, fluorescence polarization, dose response (AID 1960)
T3 sequence (Q9XUB2 whole entry): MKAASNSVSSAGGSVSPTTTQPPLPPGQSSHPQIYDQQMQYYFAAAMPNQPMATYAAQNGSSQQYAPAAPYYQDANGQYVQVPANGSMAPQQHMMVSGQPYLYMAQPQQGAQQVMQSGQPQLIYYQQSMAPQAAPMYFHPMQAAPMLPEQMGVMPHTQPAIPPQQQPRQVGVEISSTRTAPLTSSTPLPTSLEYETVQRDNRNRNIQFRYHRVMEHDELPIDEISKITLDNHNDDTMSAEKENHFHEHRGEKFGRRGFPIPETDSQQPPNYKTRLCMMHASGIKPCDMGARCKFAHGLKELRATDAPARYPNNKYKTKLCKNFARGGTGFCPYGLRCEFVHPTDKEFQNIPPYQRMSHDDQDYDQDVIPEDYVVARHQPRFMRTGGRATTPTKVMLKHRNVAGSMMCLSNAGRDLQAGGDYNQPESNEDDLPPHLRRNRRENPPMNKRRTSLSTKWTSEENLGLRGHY

Apelin receptor = Apelin receptor (Homo sapiens, UniProt P35414); experiment: apelin receptor antagonists, arrestin read-out – cell-based, luminescent, enzyme-fragment complementation, selectivity assay for CCR6 antagonist project, SAR follow-up (AID 588359); type: functional
Sequence of Apelin receptor (P35414 whole entry, the tested form may be a part): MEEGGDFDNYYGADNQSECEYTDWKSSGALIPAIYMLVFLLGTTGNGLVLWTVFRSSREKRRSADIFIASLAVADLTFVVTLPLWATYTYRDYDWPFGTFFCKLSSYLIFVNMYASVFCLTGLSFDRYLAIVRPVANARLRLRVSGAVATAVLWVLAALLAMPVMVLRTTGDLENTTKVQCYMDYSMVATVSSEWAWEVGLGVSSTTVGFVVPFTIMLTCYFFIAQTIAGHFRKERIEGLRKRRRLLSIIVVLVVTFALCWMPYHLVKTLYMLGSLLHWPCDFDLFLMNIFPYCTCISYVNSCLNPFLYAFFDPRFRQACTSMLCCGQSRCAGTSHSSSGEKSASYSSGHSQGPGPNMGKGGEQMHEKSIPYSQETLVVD

Mu-type opioid receptor = Mu-type opioid receptor (Homo sapiens, UniProt P35372); experiment: (§1) Counterscreen for agonists of heterodimerization of the mu 1 (OPRM1) and delta 1 (OPRD1) opioid receptors: Luminescence-based cell-based high throughput dose response assay to identify agonists of OPRM1 homodimerization.; type: functional
Sequence of Mu-type opioid receptor (P35372 whole entry): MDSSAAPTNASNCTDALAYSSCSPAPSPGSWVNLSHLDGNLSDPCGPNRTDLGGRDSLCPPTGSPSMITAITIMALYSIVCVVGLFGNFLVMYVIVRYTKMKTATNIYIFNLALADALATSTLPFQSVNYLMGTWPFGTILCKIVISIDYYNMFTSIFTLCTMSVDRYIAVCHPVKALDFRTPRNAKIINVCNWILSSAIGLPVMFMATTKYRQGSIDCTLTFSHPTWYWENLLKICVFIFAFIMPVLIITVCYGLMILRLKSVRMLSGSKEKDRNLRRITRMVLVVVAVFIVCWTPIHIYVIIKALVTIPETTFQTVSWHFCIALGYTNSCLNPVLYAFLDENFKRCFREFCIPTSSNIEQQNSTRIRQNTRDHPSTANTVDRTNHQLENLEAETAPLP

[4] = target: Delta-type opioid receptor (Homo sapiens, UniProt P41143); experiment: as §1, with “of OPRD1” for “of OPRM1”, “homodimerization. [Related pubchem assays (depositor defined):AID504326, AID504355, AID504692, AID504904, AID504905]” for “homodimerization.”; type: functional
Sequence of Delta-type opioid receptor (P41143 whole entry, the tested form may be a part): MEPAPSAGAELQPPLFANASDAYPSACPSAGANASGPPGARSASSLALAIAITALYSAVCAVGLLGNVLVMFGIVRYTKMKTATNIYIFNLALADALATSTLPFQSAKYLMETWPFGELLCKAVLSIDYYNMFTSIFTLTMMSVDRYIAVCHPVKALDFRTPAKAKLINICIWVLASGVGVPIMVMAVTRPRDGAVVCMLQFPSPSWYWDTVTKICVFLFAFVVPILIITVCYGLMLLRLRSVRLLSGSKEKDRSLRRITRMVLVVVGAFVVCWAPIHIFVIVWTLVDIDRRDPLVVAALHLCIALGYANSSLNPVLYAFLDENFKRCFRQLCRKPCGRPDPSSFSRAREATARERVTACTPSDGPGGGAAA

[5] = target: T4, RNA-binding protein pos-1 (Caenorhabditis elegans, UniProt G5EF15); experiment: disruptors of C. elegans POS-1 RNA interaction – biochemical, fluorescence polarization, dose response (AID 1964);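 note: purified POS-1 fused to maltose binding protein made in E. coli; potency of compounds blocking POS-1 binding to fluorescent RNA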
T4 sequence (G5EF15 whole entry): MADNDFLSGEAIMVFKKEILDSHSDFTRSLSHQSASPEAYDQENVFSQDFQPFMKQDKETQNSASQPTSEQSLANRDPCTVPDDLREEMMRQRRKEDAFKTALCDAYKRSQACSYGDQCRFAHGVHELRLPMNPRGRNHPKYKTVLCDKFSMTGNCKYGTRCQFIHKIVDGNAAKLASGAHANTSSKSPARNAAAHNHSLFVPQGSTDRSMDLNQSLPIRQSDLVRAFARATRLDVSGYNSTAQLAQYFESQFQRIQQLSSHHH

[6] = target: 5-hydroxytryptamine receptor 5A (Homo sapiens, UniProt P47898); experiment: Counterscreen for agonists of OPRM1-OPRD1 heterodimerization: luminescence-based cell-based high throughput dose response assay to identify agonists of 5-hydroxytryptamine (serotonin) 5A receptor (HTR5A). [Related pubchem assays (depositor defined):AID504326, AID504355, AID504692, AID504904, AID504905]; type: functional
Sequence of 5-hydroxytryptamine receptor 5A (P47898 whole entry): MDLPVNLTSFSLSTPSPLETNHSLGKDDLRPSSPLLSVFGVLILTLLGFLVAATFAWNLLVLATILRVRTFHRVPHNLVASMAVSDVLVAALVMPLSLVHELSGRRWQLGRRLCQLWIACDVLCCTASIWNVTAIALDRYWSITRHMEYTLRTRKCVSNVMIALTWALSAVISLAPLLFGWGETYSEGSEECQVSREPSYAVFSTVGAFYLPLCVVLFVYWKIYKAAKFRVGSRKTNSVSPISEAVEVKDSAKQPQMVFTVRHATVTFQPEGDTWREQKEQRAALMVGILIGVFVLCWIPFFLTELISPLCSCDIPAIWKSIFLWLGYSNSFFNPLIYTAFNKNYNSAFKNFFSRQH

HEK293 [7] = experiment: NOD2 signaling inhibitors in MDP-stimulated cells, cell-based, uHTS, luminescence (AID 2001); type: functional; conditions: Homo sapiens
HEK293 [8] = experiment: cells; type: functional, cell-based; conditions: Homo sapiens
[9] = Fluorescence-based cell-based high throughput dose response assay for inhibitors of the interaction of nucleotide-binding oligomerization domain containing 2 (NOD2) and the receptor-interacting serine-threonine kinase 2 (RIPK2).; type: functional; conditions: Homo sapiens
[10] = general mammalian cell viability loss – inhibitor set, cherry-pick, set 2, cytotoxicity control for miR-122 modulator project, dose response (AID 720697); type: functional, cell-based
[11] = target: Heat shock protein HSP 90-alpha (Homo sapiens, UniProt P07900); type: functional, organism-based
[12] = general mammalian cell viability loss – activator set, cherry-pick, cytotoxicity control for miR-122 modulator project, dose response (AID 720690); type: functional, cell-based;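 note: HEK293T human cells scored for general mammalian cytotoxicity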
[13] = target: FAD-linked sulfhydryl oxidase ALR (Homo sapiens, UniProt P55789); experiment: ALR-catalysed DTT oxidation blockers – biochemical, H2O2 detection, luminescence, cherry-pick, dose response (AID 493248)
Sequence of FAD-linked sulfhydryl oxidase ALR (P55789 whole entry, the tested form may be a part): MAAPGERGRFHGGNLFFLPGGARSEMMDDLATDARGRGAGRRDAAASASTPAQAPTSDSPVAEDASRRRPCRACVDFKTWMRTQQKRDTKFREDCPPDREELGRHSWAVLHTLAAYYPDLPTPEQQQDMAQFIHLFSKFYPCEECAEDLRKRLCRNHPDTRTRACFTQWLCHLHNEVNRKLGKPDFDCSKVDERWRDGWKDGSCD

[14] = target: Nucleotide-binding oligomerization domain-containing protein 2 (Homo sapiens, UniProt Q9HC29); experiment: inhibition of NOD2-driven NF-kB reporter – cell-based, luminescence, uHTS, HEK293 (AID 1566); type: functional
Sequence of Nucleotide-binding oligomerization domain-containing protein 2 (Q9HC29 whole entry, the tested form may be a part): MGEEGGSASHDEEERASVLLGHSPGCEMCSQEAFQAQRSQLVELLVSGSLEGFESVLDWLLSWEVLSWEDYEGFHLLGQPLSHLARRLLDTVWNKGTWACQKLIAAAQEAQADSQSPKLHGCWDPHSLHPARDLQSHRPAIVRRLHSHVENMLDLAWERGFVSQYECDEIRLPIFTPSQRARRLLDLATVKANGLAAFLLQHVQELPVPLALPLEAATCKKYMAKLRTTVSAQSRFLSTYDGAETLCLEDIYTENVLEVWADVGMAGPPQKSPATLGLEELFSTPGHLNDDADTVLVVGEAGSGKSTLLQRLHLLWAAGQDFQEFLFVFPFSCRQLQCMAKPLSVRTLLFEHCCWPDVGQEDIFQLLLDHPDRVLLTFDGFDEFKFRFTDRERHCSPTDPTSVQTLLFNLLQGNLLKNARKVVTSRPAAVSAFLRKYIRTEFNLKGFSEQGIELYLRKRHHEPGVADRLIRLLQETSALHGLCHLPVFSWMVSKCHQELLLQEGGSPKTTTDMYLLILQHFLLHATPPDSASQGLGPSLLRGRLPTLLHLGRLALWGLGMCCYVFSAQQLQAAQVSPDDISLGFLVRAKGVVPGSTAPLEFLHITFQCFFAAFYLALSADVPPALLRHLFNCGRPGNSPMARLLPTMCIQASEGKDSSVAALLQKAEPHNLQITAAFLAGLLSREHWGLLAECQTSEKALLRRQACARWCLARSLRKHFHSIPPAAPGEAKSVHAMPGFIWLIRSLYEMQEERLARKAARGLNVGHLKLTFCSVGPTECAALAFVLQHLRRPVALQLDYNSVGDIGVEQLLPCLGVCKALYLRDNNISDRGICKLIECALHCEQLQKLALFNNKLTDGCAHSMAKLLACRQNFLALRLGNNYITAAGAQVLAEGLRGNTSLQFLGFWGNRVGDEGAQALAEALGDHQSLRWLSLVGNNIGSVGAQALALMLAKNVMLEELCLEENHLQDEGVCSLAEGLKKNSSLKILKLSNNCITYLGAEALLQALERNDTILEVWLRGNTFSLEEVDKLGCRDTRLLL

HEK293 [15] = experiment: cells; type: functional, cell-based; conditions: Homo sapiens; remark: listed apart in the source
HEK293 [16] = experiment: inhibition of NOD1-driven NF-kB reporter – cell-based, luminescence, uHTS, primary screen (AID 1578); type: functional; conditions: Homo sapiens
INS1 = experiment: INS-1E survival protection against cytokine death – cell-based, luminescence, retest, dose response (AID 449756); type: functional; conditions: Rattus norvegicus;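 note: cell death triggered by IL-1 beta plus TNF-alpha plus IFN-gamma mixture; protective hits raise ATP signal compared with cytokine alone wells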
[17] = reduction of Shn3 3'UTR-driven luciferase in osteoblasts – cell-based, Clone20 osteoblasts, firefly luciferase, cherry-picked, dose response (AID 624132); type: functional;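 note: firefly luciferase luminescence from reporter carrying the Shn3 3'UTR in osteoblasts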
HEK293 [18] = experiment: cells; type: functional, cell-based; conditions: Homo sapiens; remark: listed apart in the source
[19] = Trypanosoma cruzi growth suppression in host cells – NIH3T3 host cells, beta-gal luminescence, confirmation (AID 2044); type: functional, cell-based;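 note: intracellular parasites grown in NIH/3T3 mouse fibroblasts as host cells; luminescent beta-galactosidase reporter signal from transgenic T. cruzi replicating inside host cells; inhibitors lower the luminescence signal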
[20] = activation of miR-122 Renilla sensor silencing – cell-based, Huh7 psiCHECK-miR122, Renilla luciferase, cherry-picked, dose response (AID 651956); type: functional;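 note: huh7 hepatoma cells stably carrying a psiCHECK-2 miR-122 sensor plasmid; renilla luciferase signal reporting endogenous miR-122 activity after 48 h compound exposure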
[21] = loss of viability in HepG2 cells – cell-based, CellTiter-Glo, cherry-picked, cytotoxicity control for Shn3 inhibitor project, dose response (AID 624134); type: functional
[22] = NIH3T3 cell viability loss – ATP luminescence, mouse fibroblasts, counter-screen, dose response (AID 2010); type: functional, cell-based;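 note: cells exposed to compound for about 90 hours before reading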
[23] = non-specific 3'UTR reporter inhibition in Clone20-Shn3RL – cell-based, Renilla luciferase, cherry-picked, counter-screen for Shn3 inhibitor project, dose response (AID 624133); type: functional
HEK293 [24] = experiment: cells; type: functional, cell-based; conditions: Homo sapiens; remark: listed apart in the source
[25] = target: Nuclear receptor subfamily 0 group B member 1 (Homo sapiens, UniProt P51843); experiment: Luminescence-based cell-based high throughput dose response assay for inhibitors of the orphan nuclear receptor subfamily 0, group B, member 1 (DAX1; NR0B1). [Related pubchem assays (depositor defined):AID504766, AID504790]; type: functional
Sequence of Nuclear receptor subfamily 0 group B member 1 (P51843 whole entry): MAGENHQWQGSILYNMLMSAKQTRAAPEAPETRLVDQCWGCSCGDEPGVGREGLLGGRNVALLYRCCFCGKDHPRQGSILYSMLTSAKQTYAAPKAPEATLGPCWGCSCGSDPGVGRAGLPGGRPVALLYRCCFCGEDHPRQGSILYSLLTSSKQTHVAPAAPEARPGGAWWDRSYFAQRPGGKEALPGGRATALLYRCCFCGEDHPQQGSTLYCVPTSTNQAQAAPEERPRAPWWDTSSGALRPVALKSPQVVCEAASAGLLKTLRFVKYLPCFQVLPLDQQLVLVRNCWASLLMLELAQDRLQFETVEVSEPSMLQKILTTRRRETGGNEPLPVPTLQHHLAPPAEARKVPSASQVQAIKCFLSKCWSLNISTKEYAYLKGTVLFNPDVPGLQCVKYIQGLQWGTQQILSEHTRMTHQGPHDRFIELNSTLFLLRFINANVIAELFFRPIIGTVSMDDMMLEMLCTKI

Sequence of Beta-galactosidase (Q8VNN2 whole entry): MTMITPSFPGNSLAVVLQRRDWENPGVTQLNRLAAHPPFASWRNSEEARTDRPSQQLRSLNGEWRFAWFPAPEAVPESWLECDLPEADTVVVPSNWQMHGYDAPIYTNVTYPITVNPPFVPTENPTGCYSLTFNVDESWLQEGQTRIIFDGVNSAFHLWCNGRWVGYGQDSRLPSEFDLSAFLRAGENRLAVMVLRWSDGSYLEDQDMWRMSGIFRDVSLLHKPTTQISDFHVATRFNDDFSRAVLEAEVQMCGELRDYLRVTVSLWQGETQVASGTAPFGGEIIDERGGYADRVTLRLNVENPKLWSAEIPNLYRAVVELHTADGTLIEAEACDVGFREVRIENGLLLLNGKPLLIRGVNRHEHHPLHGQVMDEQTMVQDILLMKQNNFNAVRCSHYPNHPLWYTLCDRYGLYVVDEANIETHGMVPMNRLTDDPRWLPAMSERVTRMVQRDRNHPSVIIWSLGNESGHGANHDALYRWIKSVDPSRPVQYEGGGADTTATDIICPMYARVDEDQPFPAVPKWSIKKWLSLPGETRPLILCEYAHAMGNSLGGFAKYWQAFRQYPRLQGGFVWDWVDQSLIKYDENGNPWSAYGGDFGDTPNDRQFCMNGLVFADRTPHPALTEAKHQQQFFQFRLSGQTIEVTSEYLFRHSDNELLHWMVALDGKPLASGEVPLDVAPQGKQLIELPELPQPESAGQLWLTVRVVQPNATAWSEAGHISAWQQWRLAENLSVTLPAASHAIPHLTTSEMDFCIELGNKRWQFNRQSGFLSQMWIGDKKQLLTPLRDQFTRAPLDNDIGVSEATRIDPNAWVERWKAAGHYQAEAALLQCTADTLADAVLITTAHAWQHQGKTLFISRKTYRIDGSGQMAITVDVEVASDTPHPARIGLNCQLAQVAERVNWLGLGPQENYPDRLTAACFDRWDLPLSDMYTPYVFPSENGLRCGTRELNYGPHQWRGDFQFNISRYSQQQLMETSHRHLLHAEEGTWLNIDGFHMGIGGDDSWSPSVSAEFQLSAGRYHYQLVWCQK

COCCCn1c(N)c(-c2nc3ccccc3n2C)c2nc3ccccc3nc21
active: EC50 [1] 2.66 µM | EC50 [3] 40.6 µM | IC50 (Apelin receptor) 19.3 µM | EC50 [5] 40.4 µM
inactive: IC50 (Beta-galactosidase) > 66.6 µM | IC50 [2] > 20 µM | EC50 (Mu-type opioid receptor) > 92.5 µM | EC50 [4] > 92.5 µM | EC50 [6] > 92.5 µM

Cc1ccc(S(=O)(=O)c2ccc([N+](=O)[O-])cn2)cc1
inactive: IC50 (Beta-galactosidase) > 66.6 µM | IC50 (Apelin receptor) 23.4 µM | EC50 [14] > 20 µM | IC50 (HEK293 [15]) > 20 µM | AC50 (INS1) > 260 µM | IC50 (HEK293 [18]) > 20 µM
active: IC50 (HEK293 [7]) 6.5 µM | IC50 (HEK293 [8]) 5.37 µM | IC50 [9] 6.33 µM | AC50 [10] 7.35 µM | AC50 [11] 4.18 µM | AC50 [12] 4.36 µM | AC50 [13] 15.3 µM | EC50 (HEK293 [16]) 6.69 µM | AC50 [17] 3.85 µM | EC50 [19] 2.38 µM | AC50 [20] 10.6 µM | AC50 [21] 12.1 µM | EC50 [22] 3.42 µM | AC50 [23] 3.26 µM

O=C(COc1ccc(Cl)cc1Cl)c1ccc[nH]1
inactive: IC50 (HEK293 [24]) > 67.6 µM | IC50 [25] > 67.6 µM
